Measured values: patent US3970648A, “2-[2-(5-Nitro-2-furyl)vinyl]-4-(anilino)quinazolines” (Diamond Shamrock Corporation, priority 1974, dated 1976)

What was measured:
Type in all cases: cell-based
[1] = system: Salmonella cholerasuis; assay: Bactericide test, Salmonella cholerasuis (agar streak plate); conditions: Salmonella
Summary of the method: (§1)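 Compounds in Triton X-155/acetone emulsifier (basic formulation 320 ppm, diluted serially) were mixed 2:8 into molten nutrient-tryptic soy agar, then organisms streaked on the set plates. After 48 hr at 28°C, growth was scored visually against untreated agar as 0%, 50% (sparse, separated colonies) or 100% control (no visible colonies).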

[2] = system: Escherichia coli; assay: Bactericide test, Escherichia coli (agar streak plate)
From the text: (§2) Test formulations were examined for bactericidal and/or bacteriostatic activity against the test organisms shown in Tables A and B. These organisms were chosen as being representative of commercially important pathogens affecting animal agriculture. The antibiotic chlortetracycline was chosen as a positive control, since it has a broad spectrum of activity against a large number of organisms, and its activity can be used for comparative purposes.
(§3) Basic test formulations of the product of Examples I, II, III, and of chlortetracycline were prepared by dissolving 16 mg (0.016 g) in 2.0 ml of stock emulsifier solution (0.25% Triton X-155 in acetone by volume) and making each solution up to 50 ml with deionized water. The concentration of the test compound in the basic formulation was 320 ppm. Lower concentrations of the test compound were obtained by diluting the basic formulation with a 4% solution of the stock emulsifier in deionized water so that each dilution in the series differed only in test compound content.
(§4) Nutrient-tryptic soy agar (NTA) consisting of 2.0% Difco Bactoagar 0.8% nutrient broth (Difco), and 0.5% tryptic soy broth (Difco) was prepared and sterilized by autoclaving. A 2 ml aliquot of each test formulation was added to 8 ml of molten NTA. This mixture was then plated in a sterile polystyrene petri dish (100 × 15 mm). After the agar was set, suspensions of each of the test organisms were simultaneously streaked onto the surface of the agar. The inoculated plates were incubated for 48 hr at 28°C. The inhibition of growth of each organism was rated by visual comparison with the organism developing on non-treated agar. Growth inhibition reported as per cent control was rated in three categories as follows: 0% control, growth equivalent to that on non-treated agar; 50% control, sparse development and separated colonies; 100% control, no visible growth or development of colonies.
(§5) Test formulations of the product of Example IV were examined for bactericidal and/or bacteriostatic activity against the test organisms shown in Table B using the Bactericide Test described in Example V. The inhibition of organism growth with each diluted test formulation was rated visually by comparison with the organism developing on a non-treated control agar plate. Growth inhibition reported as per cent control was rated in three categories as follows: 0% control, growth equivalent to that on non-treated agar; 50% control is sparse development and separated colonies; and 100% control, development of individual colonies was not apparent.

[3] = system: Vibrio coli; assay: Bactericide test, Vibrio coli (agar streak plate)
Summary of the method: (§6)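 Compounds were formulated with Triton X-155/acetone emulsifier (basic formulation 320 ppm, serially diluted) and mixed 2:8 into molten nutrient-tryptic soy agar. Organisms were streaked onto the plates and incubated 48 hr at 28°C. Growth inhibition was scored visually against untreated agar as 0, 50 or 100% control.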

[4] = system: Streptococcus group E; assay: Bactericide test, Streptococcus group E (agar streak plate)
Summary of the method: as §6

[5] = system: Erysipelothrix rhusiopathiae; assay: Bactericide test, Erysipelothrix rhusiopathiae (agar streak plate)
Summary of the method: as §6

[6] = system: Salmonella typhimurium; assay: Bactericide test, Salmonella typhimurium (agar streak plate); conditions: Salmonella enterica, TYPHIMURIUM
From the text: as §2, §3, §4

[7] = system: Streptococcus faecalis; assay: Bactericide test, Streptococcus faecalis (agar streak plate)
Summary of the method: as §1

[8] = system: Bordetella bronchiseptica; assay: Bactericide test, Bordetella bronchiseptica (agar streak plate)
Summary of the method: as §6

[9] = system: Streptococcus agalactiae; assay: Bactericide test, Streptococcus agalactiae (agar streak plate)
Summary of the method: as §6

[10] = system: Salmonella gallinarum; assay: Bactericide test, Salmonella gallinarum (agar streak plate); conditions: Salmonella enterica, GALLINARUM
Summary of the method: as §1

[11] = system: Staphylococcus aureus; assay: Bactericide test, Staphylococcus aureus (agar streak plate); conditions: Staphylococcus aureus
From the text: as §2, §3, §4, §5

[12] = 100% inhibition at lower concentrations

Compound: O=[N+]([O-])c1ccc(C=Cc2nc(Nc3ccc(O)cc3)c3ccccc3n2)o1 [Example I, 2-[2-(5-nitro-2-furyl)vinyl]-4-(p-hydroxyanilino)quinazoline]
- inhibition at 0.125 ppm ([1]; 0.125 ppm): 0%
- inhibition at 0.25 ppm ([1]; 0.25 ppm): 0%
- inhibition at 0.5 ppm ([1]; 0.5 ppm): 0%
- inhibition at 1 ppm ([1]; 1 ppm, read-out: % Inhibition): 0%
- inhibition at 2 ppm ([1]; 2 ppm): 0%
- inhibition at 4 ppm ([1]; 4 ppm, read-out: % Inhibition): 0%
- inhibition at 8 ppm ([1]; 8 ppm): 0%
- inhibition at 16 ppm ([1]; 16 ppm, read-out: % Inhibition): 0%
- inhibition at 32 ppm ([1]; 32 ppm): 0%
- inhibition at 64 ppm ([1]; 64 ppm, read-out: % Inhibition): 0%
- inhibition at 0.125 ppm ([2]; 0.125 ppm): 0%
- inhibition at 0.25 ppm ([2]; 0.25 ppm): 0%
- inhibition at 0.5 ppm ([2]; 0.5 ppm): 0%
- inhibition at 1 ppm ([2]; 1 ppm, read-out: % Inhibition): 0%
- inhibition at 2 ppm ([2]; 2 ppm): 0%
- inhibition at 4 ppm ([2]; 4 ppm, read-out: % Inhibition): 0%
- inhibition at 8 ppm ([2]; 8 ppm): 0%
- inhibition at 16 ppm ([2]; 16 ppm, read-out: % Inhibition): 0%
- inhibition at 32 ppm ([2]; 32 ppm): 0%
- inhibition at 64 ppm ([2]; 64 ppm, read-out: % Inhibition): 0%
- effectiveness compared with chlortetracycline (in words) [3, 12]: considerably more effective
- inhibition at 0.125 ppm ([3]; Campylobacter coli, 0.125 ppm): 100%
- inhibition at 0.25 ppm ([3]; Campylobacter coli, 0.25 ppm): 100%
- inhibition at 0.5 ppm ([3]; Campylobacter coli, 0.5 ppm): 100%
- inhibition at 1 ppm ([3]; Campylobacter coli, 1 ppm): 100%
- inhibition at 2 ppm ([3]; Campylobacter coli, 2 ppm): 100%
- inhibition at 4 ppm ([3]; Campylobacter coli, 4 ppm): 100%
- inhibition at 8 ppm ([3]; Campylobacter coli, 8 ppm): 100%
- inhibition at 16 ppm ([3]; Campylobacter coli, 16 ppm): 100%
- inhibition at 32 ppm ([3]; Campylobacter coli, 32 ppm): 100%
- inhibition at 64 ppm ([3]; Campylobacter coli, 64 ppm): 100%
- inhibition at 0.125 ppm ([4]; 0.125 ppm): 100%
- inhibition at 0.25 ppm ([4]; 0.25 ppm): 100%
- inhibition at 0.5 ppm ([4]; 0.5 ppm): 100%
- inhibition at 1 ppm ([4]; 1 ppm, read-out: % Inhibition): 100%
- inhibition at 2 ppm ([4]; 2 ppm): 100%
- inhibition at 4 ppm ([4]; 4 ppm, read-out: % Inhibition): 100%
- inhibition at 8 ppm ([4]; 8 ppm): 100%
- inhibition at 16 ppm ([4]; 16 ppm, read-out: % Inhibition): 100%
- inhibition at 32 ppm ([4]; 32 ppm): 100%
- inhibition at 64 ppm ([4]; 64 ppm, read-out: % Inhibition): 100%
- effectiveness compared with chlortetracycline (in words) [4, 12]: considerably more effective
- effectiveness compared with chlortetracycline (in words) [5, 12]: considerably more effective
- inhibition at 0.125 ppm ([5]; Erysipelothrix rhusiopathiae, 0.125 ppm): 100%
- inhibition at 0.25 ppm ([5]; Erysipelothrix rhusiopathiae, 0.25 ppm): 100%
- inhibition at 0.5 ppm ([5]; Erysipelothrix rhusiopathiae, 0.5 ppm): 100%
- inhibition at 1 ppm ([5]; Erysipelothrix rhusiopathiae, 1 ppm): 100%
- inhibition at 2 ppm ([5]; Erysipelothrix rhusiopathiae, 2 ppm): 100%
- inhibition at 4 ppm ([5]; Erysipelothrix rhusiopathiae, 4 ppm): 100%
- inhibition at 8 ppm ([5]; Erysipelothrix rhusiopathiae, 8 ppm): 100%
- inhibition at 16 ppm ([5]; Erysipelothrix rhusiopathiae, 16 ppm): 100%
- inhibition at 32 ppm ([5]; Erysipelothrix rhusiopathiae, 32 ppm): 100%
- inhibition at 64 ppm ([5]; Erysipelothrix rhusiopathiae, 64 ppm): 100%
- inhibition at 0.125 ppm ([6]; 0.125 ppm): 0%
- inhibition at 0.25 ppm ([6]; 0.25 ppm): 0%
- inhibition at 0.5 ppm ([6]; 0.5 ppm): 0%
- inhibition at 1 ppm ([6]; 1 ppm, read-out: % Inhibition): 0%
- inhibition at 2 ppm ([6]; 2 ppm): 0%
- inhibition at 4 ppm ([6]; 4 ppm, read-out: % Inhibition): 0%
- inhibition at 8 ppm ([6]; 8 ppm): 0%
- inhibition at 16 ppm ([6]; 16 ppm, read-out: % Inhibition): 0%
- inhibition at 32 ppm ([6]; 32 ppm): 0%
- inhibition at 64 ppm ([6]; 64 ppm, read-out: % Inhibition): 0%
- effectiveness compared with chlortetracycline (in words) [7, 12]: considerably more effective
- inhibition at 0.125 ppm ([7]; Enterococcus faecalis, 0.125 ppm): 100%
- inhibition at 0.25 ppm ([7]; Enterococcus faecalis, 0.25 ppm): 100%
- inhibition at 0.5 ppm ([7]; Enterococcus faecalis, 0.5 ppm): 100%
- inhibition at 1 ppm ([7]; Enterococcus faecalis, 1 ppm, read-out: % Inhibition): 100%
- inhibition at 2 ppm ([7]; Enterococcus faecalis, 2 ppm): 100%
- inhibition at 4 ppm ([7]; Enterococcus faecalis, 4 ppm, read-out: % Inhibition): 100%
- inhibition at 8 ppm ([7]; Enterococcus faecalis, 8 ppm): 100%
- inhibition at 16 ppm ([7]; Enterococcus faecalis, 16 ppm, read-out: % Inhibition): 100%
- inhibition at 32 ppm ([7]; Enterococcus faecalis, 32 ppm): 100%
- inhibition at 64 ppm ([7]; Enterococcus faecalis, 64 ppm, read-out: % Inhibition): 100%
- effectiveness compared with chlortetracycline (in words) [8, 12]: considerably more effective
- inhibition at 0.125 ppm ([8]; Bordetella bronchiseptica, 0.125 ppm): 100%
- inhibition at 0.25 ppm ([8]; Bordetella bronchiseptica, 0.25 ppm): 100%
- inhibition at 0.5 ppm ([8]; Bordetella bronchiseptica, 0.5 ppm): 100%
- inhibition at 1 ppm ([8]; Bordetella bronchiseptica, 1 ppm, read-out: % Inhibition): 100%
- inhibition at 2 ppm ([8]; Bordetella bronchiseptica, 2 ppm): 100%
- inhibition at 4 ppm ([8]; Bordetella bronchiseptica, 4 ppm, read-out: % Inhibition): 100%
- inhibition at 8 ppm ([8]; Bordetella bronchiseptica, 8 ppm): 100%
- inhibition at 16 ppm ([8]; Bordetella bronchiseptica, 16 ppm, read-out: % Inhibition): 100%
- inhibition at 32 ppm ([8]; Bordetella bronchiseptica, 32 ppm): 100%
- inhibition at 64 ppm ([8]; Bordetella bronchiseptica, 64 ppm, read-out: % Inhibition): 100%
- effectiveness compared with chlortetracycline (in words) [9, 12]: considerably more effective
- inhibition at 0.125 ppm ([9]; Streptococcus agalactiae, 0.125 ppm): 100%
- inhibition at 0.25 ppm ([9]; Streptococcus agalactiae, 0.25 ppm): 100%
- inhibition at 0.5 ppm ([9]; Streptococcus agalactiae, 0.5 ppm): 100%
- inhibition at 1 ppm ([9]; Streptococcus agalactiae, 1 ppm, read-out: % Inhibition): 100%
- inhibition at 2 ppm ([9]; Streptococcus agalactiae, 2 ppm): 100%
- inhibition at 4 ppm ([9]; Streptococcus agalactiae, 4 ppm, read-out: % Inhibition): 100%
- inhibition at 8 ppm ([9]; Streptococcus agalactiae, 8 ppm): 100%
- inhibition at 16 ppm ([9]; Streptococcus agalactiae, 16 ppm, read-out: % Inhibition): 100%
- inhibition at 32 ppm ([9]; Streptococcus agalactiae, 32 ppm): 100%
- inhibition at 64 ppm ([9]; Streptococcus agalactiae, 64 ppm, read-out: % Inhibition): 100%
- inhibition at 0.125 ppm ([10]; 0.125 ppm): 0%
- inhibition at 0.25 ppm ([10]; 0.25 ppm): 0%
- inhibition at 0.5 ppm ([10]; 0.5 ppm): 0%
- inhibition at 1 ppm ([10]; 1 ppm): 0%
- inhibition at 2 ppm ([10]; 2 ppm): 0%
- inhibition at 4 ppm ([10]; 4 ppm): 0%
- inhibition at 8 ppm ([10]; 8 ppm): 0%
- inhibition at 16 ppm ([10]; 16 ppm): 0%
- inhibition at 32 ppm ([10]; 32 ppm): 0%
- inhibition at 64 ppm ([10]; 64 ppm): 0%
- inhibition at 0.125 ppm ([11]; 0.125 ppm): 0%
- inhibition at 0.25 ppm ([11]; 0.25 ppm): 0%
- inhibition at 0.5 ppm ([11]; 0.5 ppm): 0%
- inhibition at 1 ppm ([11]; 1 ppm, read-out: % Inhibition): 0%
- inhibition at 2 ppm ([11]; 2 ppm): 0%
- inhibition at 4 ppm ([11]; 4 ppm, read-out: % Inhibition): 0%
- inhibition at 8 ppm ([11]; 8 ppm): 0%
- inhibition at 16 ppm ([11]; 16 ppm, read-out: % Inhibition): 0%
- inhibition at 32 ppm ([11]; 32 ppm): 0%
- inhibition at 64 ppm ([11]; 64 ppm, read-out: % Inhibition): 0%
